In patent US9670191B2, “Pyridyl-and pyrimidinyl-substituted pyrrole-, thiophene- and furane-derivatives as kinase inhibitors” (priority 2006, dated 2017):
Structures can show the parent of a compound that is named as a salt. Where two headings read alike, the source gives them in different places.

Biological target: Cdc7/Dbf4 (Homo sapiens (Human), UniProt O00311)
Experiment: Inhibition assay of Cdc7/Dbf4 activity (Dowex resin capture, 33P-ATP, MCM2 substrate)
Format: biochemical
Description: Inhibition Assay of Cdc7 Activity
The inhibiting activity of putative Cdc7 inhibitors and the potency of selected compounds is determined through a method of assay based on the use of Dowex resin capture technology.
The assay consists of the transfer of radioactivity labeled phosphate moiety by the kinase to an acceptor substrate. The resulting 33P-labeled product is separated from unreacted tracer, transferred into a scintillation cocktail and light emitted is measured in a scintillation counter.
The inhibition assay of Cdc7/Dbf4 activity is performed according to the following protocol.
The MCM2 substrate is trans-phosphorylated by the Cdc7/Dbf4 complex in the presence of ATP traced with γ^33-ATP. The reaction is stopped by addition of Dowex resin in the presence of formic acid. Dowex resin particles capture unreacted γ^33-ATP and drag it to the bottom of the well while ^33P phosphorylated MCM2 substrate remains in solution. The supernatant is collected, transferred into Optiplate plates and the extent of substrate phosphorylation is evaluated by β counting.
The inhibition assay of Cdc7/Dbf4 activity was performed in 96 wells plate according to the following protocol.
The solvent for test compounds contained 3% DMSO (final concentration 1%) • 10 μl substrate MCM2 (6 μM final concentration), a mixture of cold ATP (2 μM final concentration) and radioactive ATP (1/5000 molar ratio with cold ATP). • 10 μl enzyme (Cdc7/Dbf4, 2 nM final concentration) that started the reaction. The buffer of the reaction consisted in 50 mM HEPES pH 7.9 containing 15 mM MgCl2, 2 mM DTT, 3 uM NaVO3, 2 mM glycerophosphate and 0.2 mg/ml BSA. • After incubation for 60 minutes at room temperature, the reaction was stopped by adding to each well 150 μl of Dowex resin in the presence of 150 mM formic acid. After another 60 min incubation, 50 μL of suspension were withdrawn and transferred into 96-well OPTIPLATEs containing 150 μl of MicroScint 40 (Packard); after 5-10 minutes shaking the plates were read for 1 min in a Packard TOP-Count radioactivity reader.
Experimental data were analyzed by the computer program Assay Explorer using the four parameter logistic equation: y=bottom+(top−bottom)/(1+10^((log IC50−x)*slope)) where x is the logarithm of the inhibitor concentration, y is the response; y starts at bottom and goes to top with a sigmoid shape.

[1] = MCM2 substrate 6 μM, ATP 2 μM, enzyme 2 nM, 60 minutes at room temperature, read-out: IC50 values on Cdc7/Dbf4

Sequence of Cdc7/Dbf4 (O00311 whole entry, looked up, species assumed): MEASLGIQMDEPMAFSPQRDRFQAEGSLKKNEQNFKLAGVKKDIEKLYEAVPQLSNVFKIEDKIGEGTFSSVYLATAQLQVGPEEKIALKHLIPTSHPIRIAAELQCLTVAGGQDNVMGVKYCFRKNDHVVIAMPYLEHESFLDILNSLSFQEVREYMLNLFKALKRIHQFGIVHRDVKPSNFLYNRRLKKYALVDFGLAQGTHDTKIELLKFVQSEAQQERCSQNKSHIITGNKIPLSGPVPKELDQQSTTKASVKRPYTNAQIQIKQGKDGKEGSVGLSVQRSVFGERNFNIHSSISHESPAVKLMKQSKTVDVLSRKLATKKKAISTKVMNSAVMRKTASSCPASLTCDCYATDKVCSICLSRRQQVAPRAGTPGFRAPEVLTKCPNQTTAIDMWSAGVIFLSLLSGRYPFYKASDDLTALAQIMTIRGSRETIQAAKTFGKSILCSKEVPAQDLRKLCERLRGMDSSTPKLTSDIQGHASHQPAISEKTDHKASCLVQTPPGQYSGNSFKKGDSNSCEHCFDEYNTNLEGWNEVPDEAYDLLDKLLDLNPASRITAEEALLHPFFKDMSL
Sequence of Cdc7/Dbf4 (Q9UBU7 whole entry partner, looked up, species assumed): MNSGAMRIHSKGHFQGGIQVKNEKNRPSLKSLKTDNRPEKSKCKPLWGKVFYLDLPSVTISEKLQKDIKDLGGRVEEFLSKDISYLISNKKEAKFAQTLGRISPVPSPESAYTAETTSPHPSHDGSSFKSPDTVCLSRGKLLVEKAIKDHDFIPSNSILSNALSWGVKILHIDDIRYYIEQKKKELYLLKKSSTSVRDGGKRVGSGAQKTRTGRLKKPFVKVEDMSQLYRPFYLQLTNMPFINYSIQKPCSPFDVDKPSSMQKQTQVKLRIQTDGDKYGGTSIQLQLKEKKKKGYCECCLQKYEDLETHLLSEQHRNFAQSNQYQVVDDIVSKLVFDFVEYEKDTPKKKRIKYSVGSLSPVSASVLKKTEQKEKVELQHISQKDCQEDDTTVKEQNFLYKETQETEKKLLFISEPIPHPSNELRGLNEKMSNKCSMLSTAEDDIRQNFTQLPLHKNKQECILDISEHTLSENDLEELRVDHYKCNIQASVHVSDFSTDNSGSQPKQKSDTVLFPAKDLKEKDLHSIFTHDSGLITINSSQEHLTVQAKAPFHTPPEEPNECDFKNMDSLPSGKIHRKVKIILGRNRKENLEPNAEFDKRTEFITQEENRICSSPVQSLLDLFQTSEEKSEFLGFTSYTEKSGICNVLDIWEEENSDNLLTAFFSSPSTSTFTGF

| Structure (SMILES) | IC50 [nM] | IC50 [1] [nM] |
| --- | --- | --- |
| NC(=O)c1cc(-c2ccncc2)[nH]c1-c1ccccc1 [Compound A1, 2-Phenyl-5-pyridin-4-yl-1H-pyrrole-3-carboxylic acid amide] | 1 to 100 |  |
| NC(=O)c1cc(-c2ccncc2)[nH]c1-c1ccccc1F [Compound A2, 2-(2-Fluoro-phenyl)-5-pyridin-4-yl-1H-pyrrole-3-carboxylic acid amide hydrochloride] | 1 to 100 |  |
| NC(=O)c1cc(-c2ccncc2)[nH]c1-c1cccc(F)c1 [Compound A3, 2-(3-Fluoro-phenyl)-5-pyridin-4-yl-1H-pyrrole-3-carboxylic acid amide] | 1 to 100 |  |
| NC(=O)c1cc(-c2ccncc2)[nH]c1-c1ccc(F)cc1 [Compound A4, 2-(4-Fluoro-phenyl-5-pyridin-4-yl-1H-pyrrole-3-carboxylic acid amide hydrochloride] | 1 to 100 |  |
| NC(=O)c1cc(-c2ccncc2)[nH]c1-c1cccc(Br)c1 [Compound A5, 2-(3-Bromo-phenyl-5-pyridin-4-yl-1H-pyrrole-3-carboxylic acid amide hydrochloride] | 1 to 100 |  |
| NC(=O)c1cc(-c2ccncc2)[nH]c1-c1ccc(Br)cc1 [Compound A6, 2-(4-Bromo-phenyl)-5-pyridin-4-yl-1H-pyrrole-3-carboxylic acid amide hydrochloride] | 1 to 100 |  |
| Cc1ccccc1-c1[nH]c(-c2ccncc2)cc1C(N)=O [Compound A7, 5-Pyridin-4-yl-2-o-tolyl-1H-pyrrole-3-carboxylic acid amide] |  | 1 to 100 |
| Cc1cccc(-c2[nH]c(-c3ccncc3)cc2C(N)=O)c1 [Compound A8, 5-Pyridin-4-yl-2-m-tolyl-1H-pyrrole-3-carboxylic acid amide] | 1 to 100 |  |
| Cc1ccc(-c2[nH]c(-c3ccncc3)cc2C(N)=O)cc1 [Compound A9, 5-pyridin-4-yl-2-p-tolyl-1H-pyrrole-3-carboxylic acid amide] | 1 to 100 |  |
| COc1ccccc1-c1[nH]c(-c2ccncc2)cc1C(N)=O [Compound A10, 2-(2-Methoxy-phenyl)-5-pyridin-4-yl-1H-pyrrole-3-carboxylic acid amide hydrochloride] | 1 to 100 |  |
| COc1cccc(-c2[nH]c(-c3ccncc3)cc2C(N)=O)c1 [Compound A11, 2-(3-Methoxy-phenyl)-5-pyridin-4-yl-1H-pyrrole-3-carboxylic acid amide] | 1 to 100 |  |
| COc1ccc(-c2[nH]c(-c3ccncc3)cc2C(N)=O)cc1 [Compound A12, 2-(4-Methoxy-phenyl)-5-pyridin-4-yl-1H-pyrrole-3-carboxylic acid amide hydrochloride] | 1 to 100 |  |
| Cc1cccc(-c2[nH]c(-c3ccncc3)cc2C(N)=O)c1C [Compound A20, 2-(2,3-Dimethyl-phenyl)-5-pyridin-4-yl-1H-pyrrole-3-carboxylic acid amide] |  | 1 to 100 |
| NC(=O)c1cc(-c2ccncc2)[nH]c1-c1ccsc1 [Compound C1, 5-Pyridin-4-yl-2-thiophen-3-yl-1H-pyrrole-3-carboxylic acid amide] |  | 1 to 100 |
| NC(=O)c1cc(-c2ccncc2)[nH]c1-c1ccoc1 [Compound C2, 2-Furan-3-yl-5-pyridin-4-yl-1H-pyrrole-3-carboxylic acid amide] |  | 1 to 100 |
| NC(=O)c1cc(-c2ccncc2F)[nH]c1-c1ccccc1 [Compound E1, 5-(3-Fluoro-pyridin-4-yl)-2-phenyl-1H-pyrrole-3-carboxylic acid amide] | 1 to 100 |  |
| NC(=O)c1cc(-c2ccnc(N)n2)[nH]c1-c1ccccc1 [Compound F1, 5-(2-Amino-pyrimidin-4-yl)-2-phenyl-1H-pyrrole-3-carboxylic acid amide] | 1 to 100 |  |
| NC(=O)c1cc(-c2ccnc(N)n2)[nH]c1-c1ccsc1 [Compound G1, 5-(2-amino-pyrimidin-4-yl)-2-thiophen-3-yl-1H-pyrrole-3-carboxylic acid amide] | 1 to 100 |  |
| NC(=O)c1cc(-c2ccnc(Nc3ccccc3)n2)[nH]c1-c1ccccc1 [Compound H1, 2-Phenyl-5-(2-phenylamino-pyrimidin-4-yl)-1H-pyrrole-3-carboxylic acid amide] | 1 to 100 |  |
| CCn1c(-c2ccnc(N)n2)cc(C(N)=O)c1-c1ccccc1 [Compound L1, 5-(2-Amino-pyrimidin-4-yl)-1-ethyl-2-phenyl-1H-pyrrole-3-carboxylic acid amide] | 1 to 100 |  |
| CC(C)NC(=O)c1cc(-c2ccnc(N)n2)[nH]c1-c1ccccc1 [Compound M2, 5-(2-Amino-pyrimidin-4-yl)-2-phenyl-1H-pyrrole-3-carboxylic acid isopropylamide] | 1 to 100 |  |
| Nc1nccc(-c2cc(C(=O)NCc3ccccc3)c(-c3ccccc3)[nH]2)n1 [Compound M3, 5-(2-Amino-pyrimidin-4-yl)-2-phenyl-1H-pyrrole-3-carboxylic acid benzylamide] | 1 to 100 |  |
| Nc1nccc(-c2cc(C(=O)NCC3CCCCC3)c(-c3ccccc3)[nH]2)n1 [Compound M4, 5-(2-Amino-pyrimidin-4-yl)-2-phenyl-1H-pyrrole-3-carboxylic acid cyclohexylmethyl-amide] |  | 1 to 100 |
